How the values were obtained:
Syrian hamsters = test: Hamster growth (body weight) with daily leupeptin injection; assay type: in vivo; settings: for Hamster Weight: daily injection 0.8 mg leupeptin in 1 ml saline (about 20 mg/Kg per day)
Method: 20 Syrian hamsters 3 weeks old and initially weighing an average of 40 grams each were subdivided into two groups. The groups were fed similarly. All animals received a daily injection of 1 ml of isotonic saline solution except that the saline solution administered to the test group had 0.8 mg of leupeptin dissolved therein, corresponding to about 20 mg/Kg per day based on the initial weight of the animals. The animals were weighed weekly and the results obtained were as follows: […]

pea seedlings = test: Pea seedling growth (height) with leupeptin in watering; assay type: in vivo; settings: 10 mg leupeptin in 5 ml water per plant per day to the soil
Method: 20 pea seedlings 4 days after planting of seed and each containing an average of 5 leaves were divided into two matched groups. 5 ml of water per plant per day was supplied to the soil in which the control group was growing. The test group received the same 5 ml of water but 10 mg of leupeptin was dissolved therein. The lighting and other growth conditions were the same and the plant heights were measured daily. The first measurement was made on the day that the leupeptin-treated plants reached a height of about 1 cm, a practical minimum measuring height.

## CC(=O)N[C@@H](CC(C)C)C(=O)N[C@@H](CC(C)C)C(=O)N[C@H](C=O)CCCNC(=N)N [Leupeptin, leupeptin]
Syrian hamsters; Weeks 3
  Hamster Weight: 47 ± 3 grams
Syrian hamsters; Weeks 6
  Hamster Weight: 75 ± 5 grams
Syrian hamsters; Weeks 9
  Hamster Weight: 87 ± 6 grams
Syrian hamsters; Weeks 12
  Hamster Weight: 95 ± 9 grams
Syrian hamsters; Weeks 15
  Hamster Weight: 105 ± 8 grams
Syrian hamsters; Weeks 18
  Hamster Weight: 110 ± 8 grams
Syrian hamsters; Weeks 21
  Hamster Weight: 115 ± 7 grams
Syrian hamsters; Weeks 27
  Hamster Weight: 122 ± 10 grams
Syrian hamsters; Weeks 32
  Hamster Weight: 130 ± 9 grams
Syrian hamsters; at all stages of development, about 20 mg/Kg per day by injection
  Increase of hamster weight versus control: 10-15%
Syrian hamsters; muscles isolated from the treated hamsters
  Muscle mass of isolated muscles: increased weight was attributable to a corresponding muscle mass increase
Pea seedlings; Day 0
  Pea seedling height: 1 ± 0.2 cm
Pea seedlings; Day 1
  Pea seedling height: 1.5 ± 0.1 cm
Pea seedlings; Day 4
  Pea seedling height: 3.4 ± 0.2 cm
Pea seedlings; Day 6
  Pea seedling height: 5.2 ± 0.5 cm
Pea seedlings; Day 10
  Pea seedling height: 7.9 ± 0.5 cm
Pea seedlings; Day 12
  Pea seedling height: 9.2 ± 0.6 cm
Pea seedlings; Day 15
  Pea seedling height: 12.1 ± 0.8 cm
